pKi: −log10 of the molar value.
What was measured:
[1] = target: T1, hCA I (Homo sapiens, UniProt P00915); test: stopped flow CO2 hydrase assay; assay type: biochemical; settings: mean from 3 assays
T1 construct: made in house
Procedure: (§1) Carbonic anhydrase inhibition assay
(§2) The carbonic anhydrase catalyzed CO2 hydration actions for the quinazoline-based […]
(§3) Photophysics stopped-flow, as described previously. The enzymes are recombinant proteins prepared in our lab. Phenol red (at a concentration of 0.2 mM) has been used as indicator, working at the absorbance maximum of 557 nm, with 20 mM Hepes (pH 7.5) as buffer, and 20 mM Na2SO4 (for maintaining constant the ionic strength), following the initial rates of the CA- […]
(§4) 1.7 to 17 mM for the determination of the kinetic parameters and inhibition constants. For each […]
(§5) initial velocity. The uncatalyzed rates were determined in the same manner and subtracted from the total observed rates. Stock solutions of inhibitor (0.1 mM) were prepared in distilled-deionized water and dilutions up to 0.01 nM were done thereafter with the assay buffer. Inhibitor and enzyme solutions were preincubated together for 15 min at room temperature prior to assay, in order to allow for the formation of the E-I complex. The inhibition constants were obtained by non-linear least-squares methods using PRISM 3 and the Cheng-Prusoff equation, and represent the mean from at least three different determinations.

[2] = target: T2, hCA IX (Homo sapiens, UniProt Q16790); test: stopped flow CO2 hydrase assay; assay type: biochemical
T2 construct: made in house
Procedure: as §1, §2, §3, §4, §5

[3] = target: T3, hCA XII (Homo sapiens, UniProt O43570); test: stopped flow CO2 hydrase assay; assay type: biochemical
T3 construct: made in house
T3 sequence (O43570 25-354): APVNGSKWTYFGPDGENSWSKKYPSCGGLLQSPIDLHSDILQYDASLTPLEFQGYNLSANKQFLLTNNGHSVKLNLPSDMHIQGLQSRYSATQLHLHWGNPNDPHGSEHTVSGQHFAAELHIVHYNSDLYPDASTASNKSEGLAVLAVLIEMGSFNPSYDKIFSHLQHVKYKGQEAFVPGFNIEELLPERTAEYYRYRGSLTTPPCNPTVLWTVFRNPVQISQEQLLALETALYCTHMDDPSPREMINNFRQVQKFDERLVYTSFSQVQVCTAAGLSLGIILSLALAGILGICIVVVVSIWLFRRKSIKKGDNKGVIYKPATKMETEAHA
Procedure: as §1, §2, §3, §4, §5

[4] = test system: CCRF-CEM; test: NCI SRB assay; assay type: cell-based, human
[5] = test system: RPMI-8226; test: NCI SRB assay; assay type: cell-based, human
[6] = test system: A549/ATCC; test: NCI SRB assay; assay type: cell-based, human; settings: A549/ATCC
[7] = test system: HOP-92; test: NCI SRB assay; assay type: cell-based, human
[8] = test system: NCI-H322M; test: NCI SRB assay; assay type: cell-based, human
[9] = test system: COLO 205; test: NCI SRB assay; assay type: cell-based, human
[10] = test system: HCC-2998; test: NCI SRB assay; assay type: cell-based, human
[11] = test system: HCT-116; test: NCI SRB assay; assay type: cell-based, human
[12] = test system: HCT-15; test: NCI SRB assay; assay type: cell-based, human
[13] = test system: HT29; test: NCI SRB assay; assay type: cell-based, human
[14] = test system: MALME-3M; test: NCI SRB assay; assay type: cell-based, human
[15] = test system: SK-MEL-5; test: NCI SRB assay; assay type: cell-based, human
[16] = test system: UACC-257; test: NCI SRB assay; assay type: cell-based, human
[17] = test system: OVCAR-4; test: NCI SRB assay; assay type: cell-based, human
[18] = test system: OVCAR-8; test: NCI SRB assay; assay type: cell-based, human
[19] = test system: NCI/ADR-RES; test: NCI SRB assay; assay type: cell-based, human
[20] = test system: SK-OV-3; test: NCI SRB assay; assay type: cell-based, human
[21] = test system: PC-3; test: NCI SRB assay; assay type: cell-based, human
[22] = test system: DU-145; test: NCI SRB assay; assay type: cell-based, human
[23] = test system: MCF7; test: NCI SRB assay; assay type: cell-based, human
[24] = test system: HS 578 T; test: NCI SRB assay; assay type: cell-based, human
[25] = test system: BT-549; test: NCI SRB assay; assay type: cell-based, human
[26] = test system: T-47D; test: NCI SRB assay; assay type: cell-based, human
[27] = test system: MDA-MB-468; test: NCI SRB assay; assay type: cell-based, human

T1 sequence (P00915 whole entry): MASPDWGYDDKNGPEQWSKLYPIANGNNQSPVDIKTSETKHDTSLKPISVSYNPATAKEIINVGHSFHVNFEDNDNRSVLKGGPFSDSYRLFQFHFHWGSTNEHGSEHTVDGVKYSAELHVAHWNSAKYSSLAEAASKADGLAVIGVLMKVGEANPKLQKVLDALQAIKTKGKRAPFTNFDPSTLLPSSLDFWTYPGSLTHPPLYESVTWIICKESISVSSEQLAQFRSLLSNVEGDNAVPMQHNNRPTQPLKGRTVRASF

`Cc1ccc(-c2nc(Nc3ccc(C(=O)O)cc3)c3ccccc3n2)cc1` [8b, 4-((2-(p-Tolyl)quinazolin-4-yl)amino)benzoic acid] was tested, and the pKi [1] was 4.14, the “Selectivity ratio I/IX” value ([2]; KI hCA I / KI hCA IX) was 45.8 and the “Selectivity ratio II/IX” value ([2]; KI hCA II / KI hCA IX) was 2.44. For the same compound, the pKi ([2]; mean from 3 assays) was 5.80, the “Selectivity ratio I/XII” value ([3]; KI hCA I / KI hCA XII) was 174.3 and the “Selectivity ratio II/XII” value ([3]; KI hCA II / KI hCA XII) was 9.29. The pKi ([3]; mean from 3 assays) was 6.38, the GI% ([4]; 10 μM) was 28% and the “Growth Percent” value ([4]; 1.00E-5 Molar) was 71.96%. For the same compound, the GI% ([5]; RPMI-8226, 10 μM) was 45%, the “Growth Percent” value ([5]; RPMI-8226, 1.00E-5 Molar) was 55.07% and the GI% ([6]; 10 μM) was “– (Only GI% higher than 20% are shown)”. The “Growth Percent” value ([6]; 1.00E-5 Molar) was 95.03%, the GI% ([7]; HOP-92, 10 μM) was 25% and the “Growth Percent” value ([7]; HOP-92, 1.00E-5 Molar) was 75.22%. The GI% ([8]; 10 μM) was “– (Only GI% higher than 20% are shown)”, the “Growth Percent” value ([8]; 1.00E-5 Molar) was 84.20% and the GI% ([9]; COLO 205, 10 μM) was “– (Only GI% higher than 20% are shown)”. For the same compound, the “Growth Percent” value ([9]; COLO 205, 1.00E-5 Molar) was 109.50%, the GI% ([10]; HCC-2998, 10 μM) was 28% and the “Growth Percent” value ([10]; HCC-2998, 1.00E-5 Molar) was 72.45%. The GI% ([11]; HCT-116, 10 μM) was 22%, the “Growth Percent” value ([11]; HCT-116, 1.00E-5 Molar) was 77.19% and the GI% ([12]; HCT-15, 10 μM) was 49%. The “Growth Percent” value ([12]; HCT-15, 1.00E-5 Molar) was 50.85%, the GI% ([13]; HT29, 10 μM) was “– (Only GI% higher than 20% are shown)” and the “Growth Percent” value ([13]; HT29, 1.00E-5 Molar) was 87.37%. The GI% ([14]; 10 μM) was “– (Only GI% higher than 20% are shown)”, the “Growth Percent” value ([14]; 1.00E-5 Molar) was 101.05% and the GI% ([15]; SK-MEL-5, 10 μM) was 28%. For the same compound, the “Growth Percent” value ([15]; SK-MEL-5, 1.00E-5 Molar) was 71.66%, the GI% ([16]; UACC-257, 10 μM) was “– (Only GI% higher than 20% are shown)” and the “Growth Percent” value ([16]; UACC-257, 1.00E-5 Molar) was 107.52%. The GI% ([17]; OVCAR-4, 10 μM) was 26%, the “Growth Percent” value ([17]; OVCAR-4, 1.00E-5 Molar) was 74.11% and the GI% ([18]; OVCAR-8, 10 μM) was “– (Only GI% higher than 20% are shown)”. The “Growth Percent” value ([18]; OVCAR-8, 1.00E-5 Molar) was 81.90%, the GI% ([19]; 10 μM) was 24% and the “Growth Percent” value ([19]; 1.00E-5 Molar) was 76.55%. The GI% ([20]; SK-OV-3, 10 μM) was “– (Only GI% higher than 20% are shown)”, the “Growth Percent” value ([20]; SK-OV-3, 1.00E-5 Molar) was 99.63% and the GI% ([21]; PC-3, 10 μM) was 23%. For the same compound, the “Growth Percent” value ([21]; PC-3, 1.00E-5 Molar) was 77.04%, the GI% ([22]; DU-145, 10 μM) was “– (Only GI% higher than 20% are shown)” and the “Growth Percent” value ([22]; DU-145, 1.00E-5 Molar) was 81.93%. For the same compound, the GI% ([23]; MCF7, 10 μM) was 37%, the “Growth Percent” value ([23]; MCF7, 1.00E-5 Molar) was 63.19% and the GI% ([24]; HS 578 T, 10 μM) was 32%. For the same compound, the “Growth Percent” value ([24]; HS 578T, 1.00E-5 Molar) was 67.76%, the GI% ([25]; BT-549, 10 μM) was 41% and the “Growth Percent” value ([25]; BT-549, 1.00E-5 Molar) was 59.16%. For the same compound, the GI% ([26]; 10 μM) was 32%, the “Growth Percent” value ([26]; 1.00E-5 Molar) was 68.59% and the GI% ([27]; MDA-MB-468, 10 μM) was “– (Only GI% higher than 20% are shown)”. The “Growth Percent” value ([27]; MDA-MB-468, 1.00E-5 Molar) was 108.74%.
